# Measurements reported in ChEMBL document CHEMBL1128435, “Synthesis of carbon-11-, fluorine-18-, and iodine-125-labeled GABAA-gated chloride ion channel blockers: substituted 5-tert-butyl-2-phenyl-1,3-dithianes and -dithiane oxides” (J Med Chem, 1995).
# What was measured:
# [1] = Partition coefficient (logP); format: physicochemical; conditions: octanol/water
# [2] = biological target: GABA-A receptor; anion channel; assay: In vitro displacement of [3H]TBOB from Gamma-aminobutyric acid A (GABA-A) receptor of rat brain
logP [1],Ki [2] [µM],Compound
1.95,0.105,CC(C)(C)C1CS(=O)(=O)C(C)(c2ccc(I)cc2)S(=O)(=O)C1 (stereo unspecified)
0.43,0.18,CC(C)(C)C1CS(=O)(=O)C(c2ccc(F)cc2)S(=O)(=O)C1 (stereo unspecified)
4.38,0.24,CC(C)(C)C1CSC(c2ccc(C#N)cc2)SC1 (stereo unspecified)
4.96,0.085,C#Cc1ccc(C2SCC(C(C)(C)C)CS2)cc1 (stereo unspecified)
6.5,1.9,CC1(c2ccc(I)cc2)SCC(C(C)(C)C)CS1 (stereo unspecified)

# More lines, now with the values behind:
Compound,logP [1],Ki [2] [µM]
CC(C)(C)C1CSC(c2ccc(F)cc2)SC1 (stereo unspecified),4.97,
CC1(c2ccc(C#N)cc2)SCC(C(C)(C)C)CS1 (stereo unspecified),4.89,
CC(C)(C)C1CS(=O)(=O)C(C)(c2ccc(C#N)cc2)S(=O)(=O)C1 (stereo unspecified),0.351,0.087
CC(C)(C)[C@H]1CS(=O)(=O)[C@@](C)(c2ccc(C#N)cc2)S(=O)(=O)C1 (stereo in doubt; 9a),,0.2
CC(C)(C)[C@H]1CS(=O)(=O)[C@@](C)(c2ccc(C#N)cc2)S(=O)(=O)C1 (stereo in doubt; 9b),,0.041
